Measurements published in patent US11534446B2, “Pharmaceutical composition comprising 3-beta-hydroxy-5-alpha-pregnan-20-one with improved storage and solubility properties” (ASARINA PHARMA AB, priority 2010, dated 2022).

Assay: UC1010 concentration in 0.2 μm filtrate of suspensions in sesame oil with cholesterol (Example 77)
Type: physicochemical
Details: sesame oil suspension
Protocol: Suspensions of 3-beta-hydroxy-5-alpha-pregnan-20-one were prepared for investigation of solubility as follows: cholesterol was first dissolved at room temperature in sesame oil at 10 and 20 mg/ml, respectively. Suspensions of 3-beta-hydroxy-5-alpha-pregnan-20-one in sesame oil with different amounts of cholesterol were prepared on a magnetic stirrer at about 500 rpm using a conventional Teflon coated stir bar, at room temperature for several days, with occasional cycling to 2-8° C. At this time, the particles have become substantially smaller. Thereafter, samples of the respective suspensions were filtered through a 0.2 μm filter and analyzed with regard to concentration of 3-beta-hydroxy-5-alpha-pregnan-20-one. The results are presented in Table 3 and FIG. 2 where it can be seen that increasing the amounts of cholesterol increases the soluble fraction of 3-beta-hydroxy-5-alpha-pregnan-20-one. […] FIGS. 3a and 3b show microscopy pictures taken at 5× enlargement of suspensions with a 3-beta-hydroxy-5-alpha-pregnan-20-one concentration of 10 mg/g and a cholesterol:3-beta-hydroxy-5-alpha-pregnan-20-one ratio of 1:1 immediately upon mixing (3a) and after several days of stirring (3b).

In the case of `CC(=O)[C@H]1CC[C@H]2[C@@H]3CC[C@H]4C[C@@H](O)CC[C@]4(C)[C@H]3CC[C@]12C` [3-beta-hydroxy-5-alpha-pregnan-20-one], the “3-beta-hydroxy-5-alpha-pregnan-20-one concentration in filtrate” value (initial concentration 10 mg/g, weight ratio cholesterol to UC1010 0:1, 0.2 μm filter) is reported as 1 mg/mL, the “3-beta-hydroxy-5-alpha-pregnan-20-one concentration in filtrate” value (initial concentration 10 mg/g, weight ratio cholesterol to UC1010 1:1, 0.2 μm filter) is reported as 1.8 mg/mL and the “3-beta-hydroxy-5-alpha-pregnan-20-one concentration in filtrate” value (initial concentration 10 mg/g, weight ratio cholesterol to UC1010 2:1, 0.2 μm filter) is reported as 2.2 mg/mL. The “3-beta-hydroxy-5-alpha-pregnan-20-one concentration in filtrate” value (initial concentration 40 mg/g, weight ratio cholesterol to UC1010 1:2, 0.2 μm filter) was 1.9 mg/mL and the “3-beta-hydroxy-5-alpha-pregnan-20-one concentration in filtrate” value (initial concentration 40 mg/g, weight ratio cholesterol to UC1010 1:4, 0.2 μm filter) was 1.4 mg/mL.
